Numbered stars: 1 amine (or outer) side, 2 acyl side, 3 side chain; on linkers, the order of the positions; unused ones are H or OH. Square brackets hold non-standard residues; d marks the D form. Side chains are listed from the residue outwards. Peptide text beside a SMILES is read from it. * marks the point of attachment. γGlu = O=C(O)[C@H](CCC(=O)[*:2])N[*:1]; Palmitoyl = CCCCCCCCCCCCCCCC(=O)*; Aib = CC(C)(N)C(=O)O
Columns and labels:
[1] = tested on: female diabetic db/db mice; assay: Acute effects after s.c. treatment on blood glucose in non-fasting female diabetic db/db mice; type: in vivo; conditions: single 30 μg/kg s.c.
Experimental: Female healthy, lean BKS.Cg-(lean)/OlaHsd and diabetes-prone, obese BKS.Cg-+Lepr^db/+Lepr^db/OlaHsd mice were ordered group housed from Envigo RMS Inc., shipped group housed and remained group housed in shoebox caging with wood chip bedding until day 15 of the predose phase. At the study start mice were approximately 12 weeks old.
Mice were housed under vivarium conditions including a 12 h light/dark cycle (light phase 04:00 AM-4:00 PM), room temperatures between 23-26° C. and a relative humidity between 30-70%. All animals had free access to water and Purina Fomulab Diet 5008.
On predose day 9 blood glucose and body mass (approximately between 08:00-10:00 AM) as well as HbA1c measurements were performed. On day 15 of the predose phase animals were assigned to treatment groups (n=8) and to new cages to match mean HbA1c and body masses between all db/db groups. An age-matched lean group was included in the study as a healthy, lean reference.
Prior to day 1 of the dosing phase, the test article was diluted with Phosphate Buffered Saline (PBS, Gibco, without CaCl2 and MgCl2) to a concentration of 1 mg/mL and aliquots of this stock solution were stored at approximately ≤−60° C. On day 1 of the dosing phase the stock aliquot was thawed and the injected test article solution was prepared fresh by diluting it with PBS to achieve the desired concentration.
On Day 1 of the dosing phase db/db mice were either treated once with a s.c. injection of PBS-vehicle or 30 μg/kg test article. The lean reference group was treated once with a s.c. injection of PBS-vehicle. The dosing was initiated and completed between 08:00 and 10:00 AM. The applied volume was 5 ml/kg and the dose was adjusted to the most recent body mass recording of each individual.
Animals had unlimited access to water and feed during the experiment. On day 1 of the dosing phase approximately 5 μL of blood were collected via tail clips at minute −30 and 0 prior to any other inlife activities. At minute 0 mice received a s.c. dose of either PBS-vehicle or 30 μg/kg test article. Further blood samples were harvested at hour 0.25, 0.5, 1, 1.5, 2, 3, 4, 6, 8, and 24 post-dose. Glucose measurements were performed in whole blood using AlphaTRAK glucometers. If the glucose concentrations of two measurements differed by more than 20 mg/dL a third value was recorded. The Area Under the Curve (AUC) for blood glucose was calculated via the trapezoid method and for the duration of the 24 post-dose hours.
In the Figures data are depicted as means±SEM. […] A One Way Analysis of Variance and multiple comparisons (Dunnett's Method) were performed comparing the group of diabetic, obese db/db vehicle mice (n=8) with each diabetic, obese db/db test article treated mice (n=8). […] Non-diabetic, lean-vehicle group data are depicted in the Figures serving as a reference dataset for the non-obese, non-diabetic state.

[2] = Chemical stability assessment, UPLC-UV purity loss in buffer system A; type: physicochemical; conditions: 1 mg/ml, 25 mM acetate buffer pH 4.5 with m-cresol
Method in brief: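 Peptide at 1 mg/mL pure compound (purity-corrected) in 25 mM acetate buffer pH 4.5 with L-methionine, m-cresol and glycerol was sterile-filtered and stored 28 days at 5 and 40° C. UPLC-UV purity (peptide peak area/total area) was compared with the starting value to give relative purity loss in %.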

[3] = Thioflavin T (ThT) assay for physical stability (fibrillation); type: physicochemical; conditions: 3 mg/ml, 100 mM acetate pH 4.5 with m-cresol, 37° C. shaking
Method in brief: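 Peptides at 3 mg/ml final with 100 μM ThT final in 100 mM acetate pH 4.5 containing 2.7 mg/mL m-cresol, eight replicates. Stressed at 37° C by repeated cycles of 10 s shaking at 960 rpm and 50 s rest. Fluorescence read every 20 minutes; lag time in hours taken from the sigmoidal kinetic curve.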

SMILES	mean blood glucose concentration 24 hours post-dose relative to baseline [1]	Chemical stability [relative purity loss 28 days 40° C.] (%) at pH 4.5 [2]	Lag time before increase [3]	time to normalise hyperglycemia to the non-fasting blood glucose concentrations of lean reference mice [1]
CCCCCCCCCCCCCCCC(=O)N[C@@H](CCC(=O)N[C@@H](CCC(=O)NCCCC[C@H](NC(=O)[C@H](CC(C)C)NC(=O)[C@H](CCCCN)NC(=O)[C@H](CO)NC(=O)[C@H](CC(C)C)NC(=O)[C@H](CC(=O)O)NC(=O)[C@H](CO)NC(=O)[C@@H](NC(=O)[C@H](Cc1ccccc1)NC(=O)[C@@H](NC(=O)CNC(=O)[C@H](Cc1c[nH]cn1)NC(=O)C(C)(C)NC(=O)[C@@H](N)Cc1c[nH]cn1)[C@@H](C)O)[C@@H](C)O)C(=O)N[C@@H](CCC(=O)O)C(=O)N[C@@H](CCC(=O)O)C(=O)N[C@@H](CCC(N)=O)C(=O)N[C@@H](CCCNC(=N)N)C(=O)N[C@@H](CCC(N)=O)C(=O)NC(C)(C)C(=O)N[C@@H](CCC(=O)O)C(=O)N[C@@H](Cc1ccccc1)C(=O)N[C@H](C(=O)N[C@@H](CCC(=O)O)C(=O)N[C@@H](Cc1c[nH]c2ccccc12)C(=O)N[C@@H](CC(C)C)C(=O)N[C@@H](CCCCN)C(=O)N[C@@H](C)C(=O)NCC(=O)NCC(=O)N1CCC[C@H]1C(=O)N1CCC[C@H]1C(=O)N[C@@H](CO)C(=O)NC(C)(C)C(=O)N[C@@H](CCCCN)C(=O)N1CCC[C@H]1C(=O)N1CCC[C@H]1C(=O)N1CCC[C@H]1C(=O)N[C@@H](CCCCN)C(N)=O)[C@@H](C)CC)C(=O)O)C(=O)O [SEQ ID NO: 10, H-Aib-H-G-T-F-T-S-D-L-S-K-L-K[gGlu-gGlu-Palm]-E-E-Q-R-Q-Aib-E-F-I-E-W-L-K-A-G-G-P-P-S-Aib-K-P-P-P-K-NH2]	at or close to baseline	10.6%	>45 h	–
CCCCCCCCCCCCCCCC(=O)N[C@@H](CCC(=O)N[C@@H](CCC(=O)NCCCC[C@H](NC(=O)[C@H](CC(C)C)NC(=O)[C@H](CCCCN)NC(=O)[C@H](CO)NC(=O)[C@H](CC(C)C)NC(=O)[C@H](CC(=O)O)NC(=O)[C@H](CO)NC(=O)[C@@H](NC(=O)[C@H](Cc1ccccc1)NC(=O)[C@@H](NC(=O)CNC(=O)[C@H](Cc1c[nH]cn1)NC(=O)C(C)(C)NC(=O)[C@@H](N)Cc1c[nH]cn1)[C@@H](C)O)[C@@H](C)O)C(=O)N[C@@H](CCC(=O)O)C(=O)N[C@@H](CCC(=O)O)C(=O)N[C@@H](CCC(N)=O)C(=O)N[C@@H](CCCNC(=N)N)C(=O)N[C@@H](CCC(N)=O)C(=O)NC(C)(C)C(=O)N[C@@H](CCC(=O)O)C(=O)N[C@@H](Cc1ccccc1)C(=O)N[C@H](C(=O)N[C@@H](CCC(=O)O)C(=O)N[C@@H](Cc1c[nH]c2ccccc12)C(=O)N[C@@H](CC(C)C)C(=O)N[C@@H](CCCCN)C(=O)N[C@@H](C)C(=O)N[C@H](C)C(=O)NCC(=O)N1CCC[C@H]1C(=O)N1CCC[C@H]1C(=O)N[C@@H](CO)C(=O)NC(C)(C)C(=O)N[C@@H](CCCCN)C(=O)N1CCC[C@H]1C(=O)N1CCC[C@H]1C(=O)N1CCC[C@H]1C(=O)N[C@@H](CCCCN)C(N)=O)[C@@H](C)CC)C(=O)O)C(=O)O [SEQ ID NO: 11, H-Aib-H-G-T-F-T-S-D-L-S-K-L-K[gGlu-gGlu-Palm]-E-E-Q-R-Q-Aib-E-F-I-E-W-L-K-A-dAla-G-P-P-S-Aib-K-P-P-P-K-NH2] (H-H[Aib]HGTFTSDLSKLK([γGlu-γGlu-Palmitoyl])EEQRQ[Aib]EFIEWLKA[dA]GPPS[Aib]KPPPK-NH2)	still below baseline concentrations	8.8%	>45 h	≤ 6 h
CCCCCCCCCCCCCCCC(=O)N[C@@H](CCC(=O)N[C@@H](CCC(=O)NCCCC[C@H](NC(=O)[C@H](CC(C)C)NC(=O)[C@H](CCCCN)NC(=O)[C@H](CO)NC(=O)[C@H](CC(C)C)NC(=O)[C@H](CC(=O)O)NC(=O)[C@H](CO)NC(=O)[C@@H](NC(=O)[C@H](Cc1ccccc1)NC(=O)[C@@H](NC(=O)CNC(=O)[C@H](Cc1c[nH]cn1)NC(=O)C(C)(C)NC(=O)[C@@H](N)Cc1c[nH]cn1)[C@@H](C)O)[C@@H](C)O)C(=O)N[C@@H](CCC(=O)O)C(=O)N[C@@H](CCC(=O)O)C(=O)N[C@@H](CCC(N)=O)C(=O)N[C@@H](CCCNC(=N)N)C(=O)N[C@@H](CCC(N)=O)C(=O)NC(C)(C)C(=O)N[C@@H](CCC(=O)O)C(=O)N[C@@H](Cc1ccccc1)C(=O)N[C@H](C(=O)N[C@@H](CCC(=O)O)C(=O)N[C@@H](Cc1c[nH]c2ccccc12)C(=O)N[C@@H](CC(C)C)C(=O)N[C@@H](CCCCN)C(=O)N[C@@H](C)C(=O)NCC(=O)NCC(=O)N[C@@H](Cc1c[nH]cn1)C(=O)N1CCC[C@H]1C(=O)N[C@@H](CO)C(=O)NC(C)(C)C(=O)N[C@@H](CCCCN)C(=O)N1CCC[C@H]1C(=O)N1CCC[C@H]1C(=O)N1CCC[C@H]1C(=O)N[C@@H](CCCCN)C(N)=O)[C@@H](C)CC)C(=O)O)C(=O)O [SEQ ID NO: 12, H-Aib-H-G-T-F-T-S-D-L-S-K-L-K[gGlu-gGlu-Palm]-E-E-Q-R-Q-Aib-E-F-I-E-W-L-K-A-G-G-H-P-S-Aib-K-P-P-P-K-NH2]	at or close to baseline	11.9%	>45 h	–
CCCCCCCCCCCCCCCC(=O)N[C@@H](CCC(=O)N[C@@H](CCC(=O)NCCCC[C@H](NC(=O)[C@H](CC(C)C)NC(=O)[C@H](CCCCN)NC(=O)[C@H](CO)NC(=O)[C@H](CC(C)C)NC(=O)[C@H](CC(=O)O)NC(=O)[C@H](CO)NC(=O)[C@@H](NC(=O)[C@H](Cc1ccccc1)NC(=O)[C@@H](NC(=O)CNC(=O)[C@H](Cc1c[nH]cn1)NC(=O)C(C)(C)NC(=O)[C@@H](N)Cc1c[nH]cn1)[C@@H](C)O)[C@@H](C)O)C(=O)N[C@@H](CCC(=O)O)C(=O)N[C@@H](CCC(=O)O)C(=O)N[C@@H](CCC(N)=O)C(=O)N[C@@H](CCCNC(=N)N)C(=O)N[C@@H](CCC(N)=O)C(=O)NC(C)(C)C(=O)N[C@@H](CCC(=O)O)C(=O)N[C@@H](Cc1ccccc1)C(=O)N[C@H](C(=O)N[C@@H](CCC(=O)O)C(=O)N[C@@H](Cc1c[nH]c2ccccc12)C(=O)N[C@@H](CC(C)C)C(=O)N[C@@H](CCCCN)C(=O)N[C@@H](C)C(=O)N[C@H](C)C(=O)NCC(=O)N[C@@H](Cc1c[nH]cn1)C(=O)N1CCC[C@H]1C(=O)N[C@@H](CO)C(=O)NC(C)(C)C(=O)N[C@@H](CCCCN)C(=O)N1CCC[C@H]1C(=O)N1CCC[C@H]1C(=O)N1CCC[C@H]1C(=O)N[C@@H](CCCCN)C(N)=O)[C@@H](C)CC)C(=O)O)C(=O)O [SEQ ID NO: 13, H-Aib-H-G-T-F-T-S-D-L-S-K-L-K[gGlu-gGlu-Palm]-E-E-Q-R-Q-Aib-E-F-I-E-W-L-K-A-dAla-G-H-P-S-Aib-K-P-P-P-K-NH2] (H-H[Aib]HGTFTSDLSKLK([γGlu-γGlu-Palmitoyl])EEQRQ[Aib]EFIEWLKA[dA]GHPS[Aib]KPPPK-NH2)	at or close to baseline	10.5%	>45 h	–
